This is an account of results in patent US20250333418A1, “PURINE COMPOUNDS, COMPOSITIONS COMPRISING THEM AND USES THEREOF” (Novo Nordisk A/S, priority 2022, published 2025).

As a reminder, the IC50 is the concentration that inhibits the measured activity by half.

The target of assay [1] is T1, human CB1 receptor (Homo sapiens, UniProt P21554).
T1 construct: expressed in transfected cells; host or cells: HEK293
As to the kind of experiment: bioSensAll β-arrestin2 plasma membrane translocation (+GRK2) BRET biosensor assay in HEK293 cells transfected with hCB1; test compound added before EC75-80 of agonist CP55,940 (100 nM). In kind it is cell-based. The note with it: βArrestin2 (+GRK2) BRET biosensor, vs CP55,940 100 nM (EC75-80), read-out: CB1 wt βarr2 IC50. In short, it runs like this: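 Antagonist mode: compound at 12 concentrations up to 600 nM, then 100 nM CP55,940 3–5 min later, on hCB1-transfected HEK293 cells carrying the β-arrestin2 plasma-membrane biosensor plus GRK2. After overnight 37 °C incubation, 515/400 nm BRET ratio measured with 2 µM methoxy e-CTZ and standardized against positive/negative controls.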
For orientation: In BRET a luciferase serves as donor, and the signal depends on an acceptor being close.

The target of assay [2] is T1, human CB1 receptor. As to the kind of experiment: bioSensAll GAPL-Gi2 BRET biosensor assay in HEK293 cells transfected with hCB1; test compound added before EC75-80 of agonist CP55,940 (0.1 nM). In kind it is cell-based. The note with it: vs CP55,940 0.1 nM (EC75-80), read-out: CB1 wt Gi2 IC50. In outline:
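Test compounds at 12 doses up to 600 nM preceded a 0.1 nM CP55,940 challenge in hCB1/GAPL-Gi2 HEK293 cells. After overnight 37° C incubation, methoxy e-coelenterazine (2 µM final) was added and the 515/400 nm BRET ratio normalized to positive and negative controls.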

T1 sequence (P21554 whole entry): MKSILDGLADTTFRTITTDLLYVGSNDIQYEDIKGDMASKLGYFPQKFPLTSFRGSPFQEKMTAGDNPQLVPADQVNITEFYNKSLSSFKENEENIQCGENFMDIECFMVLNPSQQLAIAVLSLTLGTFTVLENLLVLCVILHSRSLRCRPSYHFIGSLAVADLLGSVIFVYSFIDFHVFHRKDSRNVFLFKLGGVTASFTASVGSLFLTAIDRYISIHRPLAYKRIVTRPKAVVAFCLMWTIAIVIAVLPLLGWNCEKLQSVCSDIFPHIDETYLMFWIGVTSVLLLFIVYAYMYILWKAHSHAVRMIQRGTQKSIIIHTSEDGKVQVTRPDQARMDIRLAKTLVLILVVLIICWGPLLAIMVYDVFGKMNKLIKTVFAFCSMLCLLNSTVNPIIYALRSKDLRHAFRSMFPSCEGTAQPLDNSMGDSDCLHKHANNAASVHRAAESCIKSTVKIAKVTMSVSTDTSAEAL

On to `CN(CCO)c1nc(N2CCC(C)(C(N)=O)CC2)c2nc(-c3ncccc3F)n(-c3ccc(Cl)cc3)c2n1` [Compound 50, 1-[9-(4-chlorophenyl)-8-(3-fluoro-2-pyridyl)-2-[2-hydroxyethyl(methyl)amino]purin-6-yl]-4-methyl-piperidine-4-carboxamide], for which the half-inhibitory concentration (IC50) came out at 47.8 nM in assay [1] and 8.41 nM in assay [2].

Regarding `Cc1cccnc1-c1nc2c(N3CCC(C)(C(N)=O)CC3)nc(N(C)CCO)nc2n1-c1ccc(Cl)cc1` [Compound 51, 1-[9-(4-chlorophenyl)-2-[2-hydroxyethyl(methyl)amino]-8-(3-methyl-2-pyridyl)purin-6-yl]-4-methyl-piperidine-4-carboxamide], the concentration for half-maximal inhibition (IC50) in assay [1] came out at 64.3 nM; in assay [2], 10.1 nM.

Turning to `CN(CCO)c1nc(N2CCC(C)(C(N)=O)CC2)c2nc(-c3ccncc3)n(-c3ccc(Cl)cc3)c2n1` [Compound 52, 1-[9-(4-chlorophenyl)-2-[2-hydroxyethyl(methyl)amino]-8-(4-pyridyl)purin-6-yl]-4-methyl-piperidine-4-carboxamide], the 50% inhibitory concentration (IC50) was 29.1 nM in assay [1] and 2.06 nM in assay [2].

As to `CC(=O)NCCOc1nc(N2CCC(C(F)(F)F)CC2)c2nc(-c3ccccc3Cl)n(-c3ccc(Cl)cc3)c2n1` [Compound 53, N-[2-[8-(2-chlorophenyl)-9-(4-chlorophenyl)-6-[4-(trifluoromethyl)-1-piperidyl]purin-2-yl]oxyethyl]acetamide], the IC50 in assay [1] came out at 13.1 nM; in assay [2], 0.966 nM.

Consider `C[C@@H](O)CN(C)c1nc(N2CCC(C)(C(N)=O)CC2)c2nc(-c3ccccc3Cl)n(-c3ccc(Cl)cc3)c2n1` [Compound 54, 1-[8-(2-chlorophenyl)-9-(4-chlorophenyl)-2-[[(2R)-2-hydroxypropyl]-methyl-amino]purin-6-yl]-4-methyl-piperidine-4-carboxamide], for which the IC50 in assay [1] stood at 1.12 nM; in assay [2] it was 0.427 nM.

In the case of `C[C@H](O)CN(C)c1nc(N2CCC(C)(C(N)=O)CC2)c2nc(-c3ccccc3Cl)n(-c3ccc(Cl)cc3)c2n1` [Compound 55, 1-[8-(2-chlorophenyl)-9-(4-chlorophenyl)-2-[[(2S)-2-hydroxypropyl]-methyl-amino]purin-6-yl]-4-methyl-piperidine-4-carboxamide], the half-inhibitory concentration (IC50) in assay [1] was 4.58 nM; in assay [2] it was 0.647 nM.

For `CC1(C(N)=O)CCN(c2nc(NCCO)nc3c2nc(-c2ccccc2Cl)n3-c2ccc(Cl)cc2)CC1` [Compound 56, 1-[8-(2-chlorophenyl)-9-(4-chlorophenyl)-2-(2-hydroxyethylamino)purin-6-yl]-4-methyl-piperidine-4-carboxamide], the IC50 in assay [1] was found to be 5.41 nM; in assay [2], 0.83 nM.

For `Cc1cn(C)c(-c2nc3c(N4CCC(C)(C(N)=O)CC4)nc(N(C)CCO)nc3n2-c2ccc(Cl)cc2)n1` [Compound 57, 1-[9-(4-chlorophenyl)-8-(1,4-dimethylimidazol-2-yl)-2-[2-hydroxyethyl(methyl)amino]purin-6-yl]-4-methyl-piperidine-4-carboxamide], the IC50 in assay [1] is 121 nM; in assay [2] it was 41.2 nM.

Regarding `CN(CCO)c1nc(N2CCC(C)(C(N)=O)CC2)c2nc(-c3cncn3C)n(-c3ccc(Cl)cc3)c2n1` [Compound 58, 1-[9-(4-chlorophenyl)-2-[2-hydroxyethyl(methyl)amino]-8-(3-methylimidazol-4-yl)purin-6-yl]-4-methyl-piperidine-4-carboxamide], the IC50 is 515 nM in assay [1] and 6.91 nM in assay [2].

As to `CC(C)n1cncc1-c1nc2c(N3CCC(C)(C(N)=O)CC3)nc(N(C)CCO)nc2n1-c1ccc(Cl)cc1` [Compound 59, 1-[9-(4-chlorophenyl)-2-[2-hydroxyethyl(methyl)amino]-8-(3-isopropylimidazol-4-yl)purin-6-yl]-4-methyl-piperidine-4-carboxamide], the IC50 in assay [1] and in assay [2] was greater than 5000 nM each time.

Regarding `CC(C)(C)OC(=O)NCCOc1nc(N2CCC(C)(C(N)=O)CC2)c2nc(-c3ccccc3Cl)n(-c3ccc(Cl)cc3)c2n1` [Compound 60, tert-butyl N-[2-[6-(4-carbamoyl-4-methyl-1-piperidyl)-8-(2-chlorophenyl)-9-(4-chlorophenyl)purin-2-yl]oxyethyl]carbamate], the values for the IC50 in assay [1] and in assay [2] were 19.3 nM and 6.96 nM, respectively.

In the case of `CC1(C(N)=O)CCN(c2nc(OCCNS(C)(=O)=O)nc3c2nc(-c2ccccc2Cl)n3-c2ccc(Cl)cc2)CC1` [Compound 61, 1-[8-(2-chlorophenyl)-9-(4-chlorophenyl)-2-[2-(methanesulfonamido)ethoxy]purin-6-yl]-4-methyl-piperidine-4-carboxamide], the IC50 amounted to 16.7 nM in assay [1] and 0.645 nM in assay [2].

With `FC(F)(F)C1CCN(c2nc(OCCNCc3ccccc3)nc3c2nc(-c2ccccc2Cl)n3-c2ccc(Cl)cc2)CC1` [Compound 62, N-benzyl-2-[8-(2-chlorophenyl)-9-(4-chlorophenyl)-6-[4-(trifluoromethyl)-1-piperidyl]purin-2-yl]oxy-ethanamine], the half-inhibitory concentration (IC50) amounted to 7.62 nM in assay [1] and 6.14 nM in assay [2].

On to `CN(CCO)c1nc(N2CCC(C)(C(N)=O)CC2)c2nc(-c3ccccn3)n(-c3ccc(Cl)cc3)c2n1` [Compound 63, 1-[9-(4-chlorophenyl)-2-[2-hydroxyethyl(methyl)amino]-8-(2-pyridyl)purin-6-yl]-4-methyl-piperidine-4-carboxamide], for which the IC50 in assay [1] came out at 65.1 nM; in assay [2], 9.9 nM.

Consider `CN(CCO)c1nc(N2CCC(C)(C(N)=O)CC2)c2nc(-c3ccc(C#N)cn3)n(-c3ccc(Cl)cc3)c2n1` [Compound 64, 1-[9-(4-chlorophenyl)-8-(5-cyano-2-pyridyl)-2-[2-hydroxyethyl(methyl)amino]purin-6-yl]-4-methyl-piperidine-4-carboxamide], for which the IC50 in assay [1] came to 27.9 nM; in assay [2], 2.45 nM.

Turning to `CN(CCO)c1nc(N2CCC(C)(C(N)=O)CC2)c2nc(-c3ccc(C#N)nc3)n(-c3ccc(Cl)cc3)c2n1` [Compound 65, 1-[9-(4-chlorophenyl)-8-(6-cyano-3-pyridyl)-2-[2-hydroxyethyl(methyl)amino]purin-6-yl]-4-methyl-piperidine-4-carboxamide], the results for the half-inhibitory concentration (IC50) in assay [1] and in assay [2] were 1.7 nM and 0.534 nM, respectively.

In the case of `C[C@@H](CO)N(C)c1nc(N2CCC(C)(C(N)=O)CC2)c2nc(-c3ccccc3Cl)n(-c3ccc(Cl)cc3)c2n1` [Compound 66, 1-[8-(2-chlorophenyl)-9-(4-chlorophenyl)-2-[[(1S)-2-hydroxy-1-methyl-ethyl]-methyl-amino]purin-6-yl]-4-methyl-piperidine-4-carboxamide], the IC50 came to 1.45 nM in assay [1] and 0.586 nM in assay [2].

On to `C[C@H](CO)N(C)c1nc(N2CCC(C)(C(N)=O)CC2)c2nc(-c3ccccc3Cl)n(-c3ccc(Cl)cc3)c2n1` [Compound 67, 1-[8-(2-chlorophenyl)-9-(4-chlorophenyl)-2-[[(1R)-2-hydroxy-1-methyl-ethyl]-methyl-amino]purin-6-yl]-4-methyl-piperidine-4-carboxamide], for which the half-inhibitory concentration (IC50) in assay [1] was 4.38 nM; in assay [2], 1.27 nM.

Turning to `CC1(C(N)=O)CCN(c2nc(S(C)(=O)=O)nc3c2nc(-c2ccccc2Cl)n3-c2ccc(Cl)cc2)CC1` [Compound 68, 1-[8-(2-chlorophenyl)-9-(4-chlorophenyl)-2-methylsulfonyl-purin-6-yl]-4-methyl-piperidine-4-carboxamide], the concentration for half-maximal inhibition (IC50) in assay [1] was 10.7 nM; in assay [2], 1.69 nM.

On to `CCOC(=O)c1cn(-c2nc(N3CCC(C)(C(N)=O)CC3)c3nc(-c4ccccc4Cl)n(-c4ccc(Cl)cc4)c3n2)cn1` [Compound 69, ethyl 1-[6-(4-carbamoyl-4-methyl-1-piperidyl)-8-(2-chlorophenyl)-9-(4-chlorophenyl)purin-2-yl]imidazole-4-carboxylate], for which the results for the IC50 in assay [1] and in assay [2] were 117 nM and 41.9 nM, respectively.

On to `CN(CCO)c1nc(N2CC(C(N)=O)C2)c2nc(-c3ccccc3Cl)n(-c3ccc(Cl)cc3)c2n1` [Compound 72], for which the half-maximal inhibitory concentration (IC50) in assay [1] was 3.81 nM; in assay [2], 1.1 nM.

In the case of `CN(CCO)c1nc(N2CC(C)(C(N)=O)C2)c2nc(-c3ccccc3Cl)n(-c3ccc(Cl)cc3)c2n1` [Compound 73], the half-inhibitory concentration (IC50) worked out at 1.77 nM in assay [1] and 0.556 nM in assay [2].

Turning to `CN(CCO)c1nc(N2CC(C)(O)C2)c2nc(-c3ccccc3Cl)n(-c3ccc(Cl)cc3)c2n1` [Compound 74], the concentration for half-maximal inhibition (IC50) in assay [1] came out at 3.02 nM; in assay [2] it was 0.574 nM.

Regarding `CN(CCO)c1nc(N2CC(C)(C#N)C2)c2nc(-c3ccccc3Cl)n(-c3ccc(Cl)cc3)c2n1` [Compound 75], the results for the IC50 in assay [1] and in assay [2] were 0.834 nM and 0.399 nM, respectively.

Turning to `COC1(C)CN(c2nc(N(C)CCO)nc3c2nc(-c2ccccc2Cl)n3-c2ccc(Cl)cc2)C1` [Compound 76], the IC50 in assay [1] turned out to be 1.18 nM; in assay [2], 0.51 nM.

Consider `CC1(C(N)=O)CCN(c2nc(C(=O)O)nc3c2nc(-c2ccccc2Cl)n3-c2ccc(Cl)cc2)CC1` [Compound 77, 6-(4-carbamoyl-4-methyl-1-piperidyl)-8-(2-chlorophenyl)-9-(4-chlorophenyl)purine-2-carboxylic acid], for which the IC50 in assay [1] and in assay [2] was greater than 5000 nM in each case.

For the compound `CC1(C(N)=O)CCN(c2nc(OCCO)nc3c2nc(-c2ccccc2Cl)n3-c2ccc(Cl)cc2)CC1` [Compound 78, 1-[8-(2-chlorophenyl)-9-(4-chlorophenyl)-2-(2-hydroxyethoxy)purin-6-yl]-4-methyl-piperidine-4-carboxamide], the IC50 is 5.68 nM in assay [1] and 0.995 nM in assay [2].
